Data: publication PMC4147587, “Synthesis and Analgesic Effects of μ-TRTX-Hhn1b on Models of Inflammatory and Neuropathic Pain” (Toxins, 2014)
Where two headings read alike, the source gives them in different places. No end group written: not given here.

How the values were obtained:
[1] = test system: formalin-induced pain behaviors in rats; assay: formalin-induced inflammatory rat model; assay type: in vivo, rat (Sprague-Dawley); settings: rat, in vivo, ip
Experimental: Acute and chronic nociceptive responses were measured using the rat paw formalin test as descried by Dubission and modified by Malmberg. Adult Sprague-Dawley rats (male, weighing 180–220 g) were used for this behavioral test. During the test, each rat was placed into open polyvinyl cages (30 cm × 40 cm × 30 cm) and at least 30 min before administration of the toxin. All agents were administered 30 min prior to s.c. intraplantar formalin injection. A volume of 50 μL formalin (5%) solution was used as previously described and injected into the plantar surface of one hind paw. Lifting, favoring, licking, shaking and flinching of the injected paw were recorded as nociceptive responses. The total time of the nociceptive response was measured every 5 min and […] (mean ± SEM). Recording of nociceptive behavior commenced immediately after formalin injection and was continued for 40 min.

human Nav1.7 = target: T1, human Nav1.7 (Homo sapiens, UniProt Q15858); assay: whole-cell patch clamp, human Nav1.7 transiently expressed in HEK 293 cells; assay type: cell-based; settings: comparison group printed as "native toxin group"
T1 construct: expressed in transfected cells; host or cells: HEK293 cells, transient transfection with Lipofectamine 2000
Description: Figure 2 Inhibitory effect of synthetic μ-TRTX-Hhn1b on Nav1.7 expressed on HEK 293 cells. […] (B) The inhibition of μ-TRTX-Hhn1b on Nav1.7 was dose-dependent. […] Data are plotted as a fraction of the maximum conductance. The voltage-dependence of steady-state inactivation was estimated using a standard double-pulse protocol, in which a 20-ms depolarizing test potential of 0 mV followed a 500-ms prepulse at potentials that ranged from −130 to −10 mV with a 10-mV increment. Cells were held at −100 mV.
A human Nav1.7 channel plasmid (accession No. NM_002977) and a plasmid for green ﬂuorescent protein were transiently transfected into human embryonic kidney 293 (HEK293) cells using Lipofectamine 2000 (Invitrogen, Carlsbad, CA, USA) according to the manufacturer’s instructions. HEK293 cells were grown under standard tissue culture conditions (5% CO2; 37 °C) in DMEM supplemented with 10% FBS. The β1 subunit was cotransfected with the Nav1.7 channel to increase the current density. Cells with green ﬂuorescence were selected for whole-cell patch-clamp recording at 36–72 h after transfection. Patch-clamp experiments were performed at room temperature. Suction pipettes (2.0–3.0 MΩ) were made from borosilicate glass capillary tubes using a two-step vertical micropipette puller. The pipette solution contained (in mM): CsCl 145, MgCl2∙6H2O 4, HEPES 10, EGTA 10, glucose 10, ATP 2 (pH 7.2). The external solution contained (in mM): NaCl 145, KCl 2.5, CaCl2 1.5, MgCl2.6H2O 1.2, HEPES 10, glucose 10 (pH 7.4). Experimental data were collected and analyzed using the program Pulse/Pulsefit 8.0 (HEKA Electronics, Pfalz, Germany). Macroscopic sodium currents were filtered at 5 kHz and digitized at 20 kHz with an EPC-9 patch-clamp amplifier (HEKA Electronics, Pfalz, Germany). Series resistance was kept near 5 MΩ and compensated to 65%–70%; linear capacitative and leakage currents were digitally subtracted using the P/4 protocol.

Nav1.7 = settings: native toxin; ref 27 (unpublished work, 2014); cited from earlier work
Description: μ-TRTX-Hhn1b (HNTX-IV) is a 35-residue peptide from tarantula Ornithoctonus hainana (Haplopelma hainanum) venom. The amino acid sequence is […]. The peptide amidated at its C-terminal has a high proportion of basic residues and is crosslinked by three disulfide bonds.

[2] = test system: Nav1.2, Nav1.3, Nav1.4, Nav1.5, Nav1.7; settings: native toxin; ref 27 (unpublished work, 2014); cited from earlier work
[3] = test system: paroxysmal extreme pain disorder (PEPD); settings: patients; cited from earlier work
Description: (§1) Voltage-gated sodium channels (VGSCs) are essential for the initiation and propagation of action potentials in excitable tissues, such as nerves and muscles. Considerable in vivo and in vitro studies indicate that VGSCs play a key role in neuropathic and inflammatory pain, which begins with the aberrant firing of action potential bursts in damaged neuronal tissue. Of the nine subtypes of VGSCs identified to date and designated as Nav1.1–1.9, Nav1.3, 1.7, 1.8 and 1.9 play specialized roles in nociceptive pathways and are considered ideal targets for the development of analgesi ...

[4] = test system: motor coordination of rats (latency to fall off the rotarod); assay type: in vivo, rat (Sprague-Dawley); settings: rat, in vivo
Experimental: Motor activity was assessed using a rotarod apparatus for rats (Coulbourn Instruments, Lehigh Valley, PA, USA). The rotarod might be set at any speed from 0 to 50 rpm. For motor coordination assessment, rats were trained for 2 days by walking them each day on an accelerating rotarod from 4 to 40 rpm for 10 min. […] Motor performance was considered as the latency to fall off the rotarod apparatus determined from the mean time in three trials for each rat at each time.

[5] = test system: rat models of neuropathic pain; settings: 37.5 mg/kg i.p., cited from earlier work
Description: A total of 30 rats with mechanical allodynia were divided into five groups randomly.

[6] = test system: inherited erythromelalgia (IEM); settings: patients; cited from earlier work
Description: as §1

T1 sequence (Q15858 other isoform, or with tags, fused parts or gaps): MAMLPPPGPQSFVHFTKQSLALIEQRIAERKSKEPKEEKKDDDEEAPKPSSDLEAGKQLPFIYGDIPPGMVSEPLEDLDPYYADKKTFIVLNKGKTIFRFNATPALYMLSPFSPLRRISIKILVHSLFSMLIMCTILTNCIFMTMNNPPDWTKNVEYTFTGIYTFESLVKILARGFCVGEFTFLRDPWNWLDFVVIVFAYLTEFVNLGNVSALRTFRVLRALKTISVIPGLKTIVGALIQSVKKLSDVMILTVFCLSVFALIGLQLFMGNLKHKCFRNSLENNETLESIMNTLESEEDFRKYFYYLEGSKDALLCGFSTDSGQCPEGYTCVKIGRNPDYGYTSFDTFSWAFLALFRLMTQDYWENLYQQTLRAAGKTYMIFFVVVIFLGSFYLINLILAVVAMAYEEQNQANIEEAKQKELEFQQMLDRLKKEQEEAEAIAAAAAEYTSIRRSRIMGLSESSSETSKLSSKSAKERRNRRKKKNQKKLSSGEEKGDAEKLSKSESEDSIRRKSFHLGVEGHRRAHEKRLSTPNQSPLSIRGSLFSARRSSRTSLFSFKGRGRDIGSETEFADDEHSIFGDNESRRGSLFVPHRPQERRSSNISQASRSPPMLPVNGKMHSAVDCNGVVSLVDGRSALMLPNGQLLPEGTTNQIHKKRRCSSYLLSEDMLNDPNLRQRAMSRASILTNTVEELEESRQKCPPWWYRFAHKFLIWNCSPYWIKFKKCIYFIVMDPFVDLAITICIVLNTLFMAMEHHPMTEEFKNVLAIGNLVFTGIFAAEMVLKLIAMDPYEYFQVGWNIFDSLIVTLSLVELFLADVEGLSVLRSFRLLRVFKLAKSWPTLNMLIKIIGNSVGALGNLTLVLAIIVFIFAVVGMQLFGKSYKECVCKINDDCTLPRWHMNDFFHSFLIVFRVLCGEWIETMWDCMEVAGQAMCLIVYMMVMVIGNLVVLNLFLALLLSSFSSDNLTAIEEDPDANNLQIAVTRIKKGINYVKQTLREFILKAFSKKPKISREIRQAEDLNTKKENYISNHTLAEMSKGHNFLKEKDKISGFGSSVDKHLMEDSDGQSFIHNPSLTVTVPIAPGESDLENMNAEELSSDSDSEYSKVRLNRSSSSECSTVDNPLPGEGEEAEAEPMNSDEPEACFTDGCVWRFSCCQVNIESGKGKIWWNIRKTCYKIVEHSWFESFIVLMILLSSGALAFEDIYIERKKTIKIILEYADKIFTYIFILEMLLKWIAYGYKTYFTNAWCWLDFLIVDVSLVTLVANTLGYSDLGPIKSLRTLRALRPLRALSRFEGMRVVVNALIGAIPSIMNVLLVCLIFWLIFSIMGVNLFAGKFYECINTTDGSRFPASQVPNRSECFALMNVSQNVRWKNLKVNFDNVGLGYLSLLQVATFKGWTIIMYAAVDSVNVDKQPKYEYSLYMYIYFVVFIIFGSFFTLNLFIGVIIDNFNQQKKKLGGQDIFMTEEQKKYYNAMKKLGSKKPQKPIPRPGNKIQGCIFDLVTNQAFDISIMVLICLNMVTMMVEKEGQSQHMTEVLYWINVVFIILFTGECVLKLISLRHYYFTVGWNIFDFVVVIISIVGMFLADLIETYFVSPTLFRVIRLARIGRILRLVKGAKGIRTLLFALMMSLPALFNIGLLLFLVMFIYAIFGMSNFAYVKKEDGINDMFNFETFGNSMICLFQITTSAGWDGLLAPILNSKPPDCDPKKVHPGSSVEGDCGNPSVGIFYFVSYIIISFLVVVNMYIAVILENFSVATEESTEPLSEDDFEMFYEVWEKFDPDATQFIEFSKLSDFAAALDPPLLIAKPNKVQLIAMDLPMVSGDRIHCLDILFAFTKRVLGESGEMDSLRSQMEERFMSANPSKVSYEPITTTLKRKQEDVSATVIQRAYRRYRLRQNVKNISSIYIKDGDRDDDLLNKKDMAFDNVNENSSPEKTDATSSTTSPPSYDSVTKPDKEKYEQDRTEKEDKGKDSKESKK
T1 sequence (Q07699 19-218, further chain): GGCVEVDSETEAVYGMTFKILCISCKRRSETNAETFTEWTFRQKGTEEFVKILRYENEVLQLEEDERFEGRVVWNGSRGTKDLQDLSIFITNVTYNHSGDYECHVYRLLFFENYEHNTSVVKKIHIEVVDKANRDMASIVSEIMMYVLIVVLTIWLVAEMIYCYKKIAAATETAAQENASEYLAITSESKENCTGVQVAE

With CN1CC[C@]23c4c5ccc(O)c4O[C@H]2[C@@H](O)C=C[C@H]3[C@H]1C5 [morphine, reference compound] the pain score [1] was 225.0 ± 55.8 s.
For “ECLGFGKGCNPSNDQCCKSSNLVCSRKHRWCKYEI (disulfide (positions not given here)) [native μ-TRTX-Hhn1b, reference compound]”, the “half-activation voltage of Nav1.7” value (human Nav1.7) is given as −20.5 ± 0.2 mV, the “half-inactivation voltage of Nav1.7” value (human Nav1.7) is given as −42.6 ± 0.2 mV and the IC50 (Nav1.7) is given as about 0.021 µM. For the same molecule, the subtype preference [2] was “preferentially inhibited Nav1.2, Nav1.3 and Nav1.7 compared with Nav1.4 and Nav1.5; Nav1.7 was the most sensitive channel”.
In the case of NC(=O)N1c2ccccc2C=Cc2ccccc21 [carbamazepine], the “control of PEPD” value [3] is listed as “well controlled”.
In the case of Cc1cccc(C)c1OCC(C)N (centres unmarked) [mexiletine], the “latency to fall off the rotarod” value [4] is given as “significant latency reduction”, the “withdrawal threshold to von Frey hair” value ([5]; 15 min after injection) is given as “significantly increased the withdrawal threshold” and the “withdrawal threshold to von Frey hair” value ([5]; 45 min after injection) is given as “returned to a level non-significantly different from the baseline and vehicle”. The “treatment of IEM” value [6] was “very ineffective”.
For CCN(CC)CC(=O)Nc1c(C)cccc1C [lidocaine], the “treatment of IEM” value [6] is listed as “very ineffective”.
